# Test results as given in the NIST ThermoML archive (doi:10.1016/j.jct.2014.02.008).
# Experiment: cn = amount concentration of the nth substance listed, in mol/dm3
# Settings: 298.15 K, 101 kPa, Liquid, Taylor dispersion method
structure (smiles),measurement,setting,value
NCCCC[C@H](N)C(=O)O [L-lysine] + O,binary diffusion coefficient,c1 = 0.001,6.66e-10 m2/s
same,binary diffusion coefficient,c1 = 0.005,6.62e-10 m2/s
same,binary diffusion coefficient,c1 = 0.01,6.61e-10 m2/s
same,binary diffusion coefficient,c1 = 0.02,6.59e-10 m2/s
same,binary diffusion coefficient,c1 = 0.03,6.52e-10 m2/s
same,binary diffusion coefficient,c1 = 0.05,6.46e-10 m2/s
same,binary diffusion coefficient,c1 = 0.1,6.26e-10 m2/s
